Assay results from patent publication US7414048B2, “4,5-dihydro-isoxazole derivatives and their pharmaceutical use” (Janssen Pharmaceutica, N.V., priority 1998, dated 2008).

Tested on: T cell blast formation in human blood
Test: In vitro inhibition of T cell blast formation in human blood (human whole blood blast formation, PHA stimulated, flow cytometry)
Type: cell-based
Conditions: 72 hours, mean where multiple measurements
Protocol: Cells are collected after a 72 hours culture period at 37° C., supernatant is removed by centrifugation and red blood cells are lysed by a hypotonic buffer. The remaining white blood cells are collected in PBS containing propidium iodide. The blast formation is analyzed using a benchtop flow cytometer (Cytoron, Ortho) equipped with an argon-ion laser. […] When multiple measurements were performed, a mean value was calculated for the percentage inhibition of T cell blast formation.

[1] = Test Dose 1 × 10^−6 (unit not given)
[2] = Test Dose 1 × 10^−7 (unit not given)
[3] = Test Dose 1 × 10^−5 (unit not given)
[4] = Test Dose 3 × 10^−7 (unit not given)

SMILES | % Inhibition of T cell blast formation [1] [%] | also measured
O=C(c1ccc(NC(=O)C2CC(c3cccnc3)=NO2)cc1)c1ccc(F)cc1F (centres unmarked) [Compound 398] | 87 | –
O=C(Nc1ccc(C(=NO)c2ccccc2)cc1)C1CC(c2cccnc2)=NO1 (single isomer, unassigned) [Compound 420] | 39 | –
O=C(c1ccc(NC(=O)C2CC(c3cccnc3)=NO2)cc1)c1cnc2ccccc2c1 (centres unmarked) [Compound 393] | 69 | –
O=C(Nc1ccc(C(=NO)c2ccc3c(c2)OCO3)cc1)C1CC(c2cccnc2)=NO1 (centres unmarked) [Compound 429] | 86 | –
O=C(Nc1ccc(C(=NO)c2ccccc2)cc1)C1CC(c2cccnc2)=NO1 (single isomer, unassigned) [Compound 419] | – | % Inhibition of T cell blast formation [2]: 86%
O=C(NCc1c(F)cccc1F)c1ccc(NC(=O)C2CC(c3cccnc3)=NO2)cc1 (centres unmarked) [Compound 279] | 74 | –
Cn1nc(-c2ccc(NC(=O)C3CC(c4cccnc4)=NO3)cc2)c2ccc(F)cc21 (centres unmarked) [Compound 465] | – | % Inhibition of T cell blast formation [3]: 83%
O=C(c1ccccc1)c1ccc(NC(=O)C2CC(c3cccnc3)=NO2)nc1 (centres unmarked) [Compound 371] | 62 | –
N#CC(OC(=O)c1ccccc1)(c1ccccc1)c1ccc(NC(=O)C2CC(c3cccnc3)=NO2)cc1 (centres unmarked) [Compound 415] | 65 | –
CC(O)(c1ccccc1)c1ccc(NC(=O)C2CC(c3cccnc3)=NO2)cc1 (centres unmarked) [Compound 510, (B1)-4,5-dihydro-N-[4-(1-hydroxy-1-phenylethyl)phenyl]-3-(3-pyridinyl)-5-isoxazolecarboxamide] | 76 | –
CC(C)OC(c1ccccc1)c1ccc(NC(=O)C2CC(c3cccnc3)=NO2)cc1.Cl (centres unmarked) [Compound 418] | 75 | –
O=C(Cc1ccccc1)NC(c1ccccc1)c1ccc(NC(=O)C2CC(c3cccnc3)=NO2)cc1 (centres unmarked) [Compound 166] | 66 | –
O=C(Nc1ccc(C(Nc2ccccc2)c2ccccc2)cc1)C1CC(c2cccnc2)=NO1 (centres unmarked) [Compound 113] | – | % Inhibition of T cell blast formation [4]: 37%
C=CCOc1ccccc1/C=C/C(=O)c1ccc(NC(=O)C2CC(c3cccnc3)=NO2)cc1 (racemic) [Compound 470] | 87 | –
O=C(Nc1ccc(-c2nc(-c3ccccc3)cs2)cc1)C1CC(c2cccnc2)=NO1 (centres unmarked) [Compound 454] | – | % Inhibition of T cell blast formation [4]: 59%
COc1ccc(OC)c(C(=O)c2ccc(NC(=O)C3CC(c4cccnc4)=NO3)cc2)c1 (centres unmarked) [Compound 395] | 77 | –
COC(c1ccccc1)c1ccc(NC(=O)C2CC(c3cccnc3)=NO2)cc1.Cl (centres unmarked) [Compound 52] | 89 | –
CC(=O)Nc1ccccc1NC(c1ccccc1)c1ccc(NC(=O)C2CC(c3cccnc3)=NO2)cc1 (centres unmarked) [Compound 174] | 42 | –
O=C(Nc1ccc(C(Nc2ccc(C(F)(F)F)cc2Br)c2ccccc2)cc1)C1CC(c2cccnc2)=NO1 (centres unmarked) [Compound 218] | – | % Inhibition of T cell blast formation [4]: 33%
COc1cccc(C(=O)c2ccc(NC(=O)C3CC(c4cccnc4)=NO3)cc2)c1 (centres unmarked) [Compound 9] | 71 | –
O=C(NCc1cccs1)c1ccc(NC(=O)C2CC(c3cccnc3)=NO2)cc1 (centres unmarked) [Compound 289] | 64 | –

SMILES | % Inhibition of T cell blast formation [1] [%] | also measured
Cc1cccc(C(=O)c2ccc(NC(=O)C3CC(c4cccnc4)=NO3)cc2)c1 (centres unmarked) [Compound 10] | 75 | –
O=C(c1ccc(NC(=O)C2CC(c3cccnc3)=NO2)cc1)c1ccccn1 (single isomer, unassigned) [Compound 489] | – | % Inhibition of T cell blast formation [2]: 80%
O=C(Nc1ccc(C(Nc2ccccc2O)c2ccccc2)cc1)C1CC(c2cccnc2)=NO1 (centres unmarked) [Compound 203] | 62 | –
O=C(Nc1ccc(C(O)c2ccncc2)cc1)C1CC(c2cccnc2)=NO1 (centres unmarked) [Compound 407] | – | % Inhibition of T cell blast formation [4]: 63%
COc1cccc(OC)c1C(=O)c1ccc(NC(=O)C2CC(c3cccnc3)=NO2)cc1 (centres unmarked) [Compound 397] | 82 | –
Cc1cc(NC(c2ccccc2)c2ccc(NC(=O)C3CC(c4cccnc4)=NO3)cc2)no1 (centres unmarked) [Compound 162] | – | % Inhibition of T cell blast formation [4]: 46%
CC(O)(c1ccccc1)c1ccc(NC(=O)C2CC(c3cccnc3)=NO2)cc1 (centres unmarked) [Compound 411, (A2)-4,5-dihydro-N-[4-(1-hydroxy-1-phenylethyl)phenyl]-3-(3-pyridinyl)-5-isoxazolecarboxamide] | 77 | –
O=C(NC(c1ccccc1)c1ccc(NC(=O)C2CC(c3cccnc3)=NO2)cc1)c1c(F)cccc1F (centres unmarked) [Compound 158] | – | % Inhibition of T cell blast formation [4]: 64%
O=C(Nc1ccc(C(=O)N2CCN(c3ccccc3)CC2)cc1)C1CC(c2cccnc2)=NO1 (centres unmarked) [Compound 379] | – | % Inhibition of T cell blast formation [4]: 51%
COc1ccc(CNC(=O)c2ccc(NC(=O)C3CC(c4cccnc4)=NO3)cc2)c(OC)c1 (centres unmarked) [Compound 274] | 71 | –
O=C(Nc1ccc(C(Nc2ccc3[nH]nnc3c2)c2ccccc2)cc1)C1CC(c2cccnc2)=NO1 (centres unmarked) [Compound 96] | 39 | –
CON=C(c1ccccc1)c1ccc(NC(=O)C2CC(c3cccnc3)=NO2)cc1 (centres unmarked) [Compound 303] | 78 | –
COc1ccccc1C(=O)c1ccc(NC(=O)C2CC(c3cccnc3)=NO2)cc1 (centres unmarked) [Compound 390] | 85 | –
O=C(c1ccc(NC(=O)C2CC(c3cccnc3)=NO2)cc1)c1cccc(F)c1 (centres unmarked) [Compound 12] | 83 | –
O=C(c1ccc(F)cc1)c1ccc(NC(=O)C2CC(c3cccnc3)=NO2)cc1 (centres unmarked) [Compound 13] | 78 | –
O=C(Nc1ccc(C(=NO)c2c(F)cccc2F)cc1)C1CC(c2cccnc2)=NO1 (centres unmarked) [Compound 431] | – | % Inhibition of T cell blast formation [4]: 71%
O=C(Nc1ccc(C(Nc2ccccn2)c2ccccc2)cc1)C1CC(c2cccnc2)=NO1 (centres unmarked) [Compound 99] | 83 | –
CC(C)=NOC(c1ccccc1)c1ccc(NC(=O)[C@@H]2CC(c3cccnc3)=NO2)cc1 (stereo partly drawn) [Compound 504, (5S)-4,5-dihydro-N-[4-[[[(1-methylethylidene)amino]oxo]phenylmethyl]phenyl]-3-(3-pyridinyl)-5-isoxazolecarboxamide] | – | % Inhibition of T cell blast formation [4]: 75%
COc1cc(S(N)(=O)=O)ccc1NC(c1ccccc1)c1ccc(NC(=O)C2CC(c3cccnc3)=NO2)cc1 (centres unmarked) [Compound 119] | 54 | –
O=C(Nc1ccc(-c2noc3cc(F)ccc23)cc1)C1CC(c2cccnc2)=NO1 (centres unmarked) [Compound 466] | – | % Inhibition of T cell blast formation [3]: 82%
